From BindingDB's records for patent US11485738 (MIRATI THERAPEUTICS, INC., 2022)

Target: Histone-binding protein RBBP4/Polycomb protein EED/Polycomb protein SUZ12/Zinc finger protein AEBP2 (Human, UniProt O75530+Q09028+Q15022+Q6ZN18)
Assay: Enzymatic Activity Assay
Description: An aliquot of each serial dilution of test compound was added to deep 384 well plate using Acoustic Technology instrument (Echo 550, LabCyte) containing reaction buffer (50 mM Tris-HCl (pH 8), 0.01% Brij35, 1 mM EDTA, 1 mM DTT, 1 mM PMSF and 1% DMSO), 10 nM purified PRC2 complex and 0.05 mg/ml core histone H3 in a 5 μl volume. The reaction was mixed gently and then pre-incubated for 20 min at 30° C. The enzymatic reaction was initiated by adding 1 uM S-Adenosyl-L-[methyl-3H]methionine and incubated for 1 hr at 30° C. After 1 hr, the reaction product was detected using a filter binding method and the amount of tritiated H3 core histone was quantitated using a scintillation counter.

Histone-binding protein RBBP4/Polycomb protein EED/Polycomb protein SUZ12/Zinc finger protein AEBP2, sequence (O75530 whole entry): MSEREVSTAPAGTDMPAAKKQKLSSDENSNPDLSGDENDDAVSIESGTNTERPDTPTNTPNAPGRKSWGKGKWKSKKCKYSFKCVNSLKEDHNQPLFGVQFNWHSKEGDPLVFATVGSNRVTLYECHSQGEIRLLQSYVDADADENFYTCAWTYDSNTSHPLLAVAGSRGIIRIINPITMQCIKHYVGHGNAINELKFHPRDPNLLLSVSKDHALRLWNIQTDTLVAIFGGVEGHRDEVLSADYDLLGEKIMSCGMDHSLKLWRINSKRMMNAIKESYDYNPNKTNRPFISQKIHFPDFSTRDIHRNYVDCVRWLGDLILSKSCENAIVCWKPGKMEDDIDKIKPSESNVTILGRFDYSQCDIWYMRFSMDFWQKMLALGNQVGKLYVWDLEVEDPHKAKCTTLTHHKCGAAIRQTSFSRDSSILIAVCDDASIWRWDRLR
Histone-binding protein RBBP4/Polycomb protein EED/Polycomb protein SUZ12/Zinc finger protein AEBP2, sequence (Q15022 whole entry): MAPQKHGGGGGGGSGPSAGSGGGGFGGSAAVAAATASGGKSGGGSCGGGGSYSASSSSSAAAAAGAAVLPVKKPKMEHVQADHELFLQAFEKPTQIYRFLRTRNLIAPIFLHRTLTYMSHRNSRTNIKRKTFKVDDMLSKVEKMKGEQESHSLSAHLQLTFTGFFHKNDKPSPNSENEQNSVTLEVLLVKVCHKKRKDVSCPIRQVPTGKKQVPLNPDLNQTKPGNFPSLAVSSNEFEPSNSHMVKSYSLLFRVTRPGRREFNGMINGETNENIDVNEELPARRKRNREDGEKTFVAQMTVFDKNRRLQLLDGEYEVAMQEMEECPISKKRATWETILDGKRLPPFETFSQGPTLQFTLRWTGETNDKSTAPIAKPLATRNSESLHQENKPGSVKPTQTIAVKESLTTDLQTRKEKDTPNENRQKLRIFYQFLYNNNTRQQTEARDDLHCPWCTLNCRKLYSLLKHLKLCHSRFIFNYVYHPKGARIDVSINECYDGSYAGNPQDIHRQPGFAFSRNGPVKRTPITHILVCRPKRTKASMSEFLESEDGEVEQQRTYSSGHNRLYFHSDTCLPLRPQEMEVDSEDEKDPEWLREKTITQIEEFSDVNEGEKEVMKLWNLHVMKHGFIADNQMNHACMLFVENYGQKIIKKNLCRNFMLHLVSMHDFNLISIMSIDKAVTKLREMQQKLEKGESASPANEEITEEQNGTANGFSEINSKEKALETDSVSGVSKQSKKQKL
Histone-binding protein RBBP4/Polycomb protein EED/Polycomb protein SUZ12/Zinc finger protein AEBP2, sequence (Q6ZN18 whole entry): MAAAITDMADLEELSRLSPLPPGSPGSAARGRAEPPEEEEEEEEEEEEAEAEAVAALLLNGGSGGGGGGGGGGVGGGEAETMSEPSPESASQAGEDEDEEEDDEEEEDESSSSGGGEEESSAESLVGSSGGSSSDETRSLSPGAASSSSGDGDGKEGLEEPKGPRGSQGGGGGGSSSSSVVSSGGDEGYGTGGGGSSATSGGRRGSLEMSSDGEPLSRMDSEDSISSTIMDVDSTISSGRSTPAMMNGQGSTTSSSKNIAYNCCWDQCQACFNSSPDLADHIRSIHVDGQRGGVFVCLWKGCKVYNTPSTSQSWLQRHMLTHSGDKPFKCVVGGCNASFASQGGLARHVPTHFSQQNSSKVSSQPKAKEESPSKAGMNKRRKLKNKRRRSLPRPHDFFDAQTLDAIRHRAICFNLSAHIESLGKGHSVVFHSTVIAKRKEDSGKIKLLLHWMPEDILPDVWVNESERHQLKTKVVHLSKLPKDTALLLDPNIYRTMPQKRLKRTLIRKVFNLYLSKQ
Histone-binding protein RBBP4/Polycomb protein EED/Polycomb protein SUZ12/Zinc finger protein AEBP2, sequence (Q09028 whole entry): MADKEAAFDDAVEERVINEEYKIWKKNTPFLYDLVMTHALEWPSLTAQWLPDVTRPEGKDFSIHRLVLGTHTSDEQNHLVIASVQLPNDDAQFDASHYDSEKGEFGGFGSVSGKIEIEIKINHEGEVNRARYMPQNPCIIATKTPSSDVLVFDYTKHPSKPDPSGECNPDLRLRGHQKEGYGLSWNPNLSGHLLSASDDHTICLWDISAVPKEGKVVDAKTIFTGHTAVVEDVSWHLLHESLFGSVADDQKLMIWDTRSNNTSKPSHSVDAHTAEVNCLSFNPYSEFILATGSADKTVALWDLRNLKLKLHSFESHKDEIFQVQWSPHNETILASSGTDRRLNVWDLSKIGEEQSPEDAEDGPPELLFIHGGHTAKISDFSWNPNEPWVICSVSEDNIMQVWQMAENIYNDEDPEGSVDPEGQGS

Row | SMILES | IC50 [nM]
1 | Cc1nc(N2CCOCC2)ccc1-c1cnc(NCc2c(F)ccc3c2CCO3)n2cc(C#N)nc12 [US11485738, Example 56] | < 100
2 | Cc1cc(S(C)(=O)=O)ccc1-c1cnc(NCc2c(F)ccc3c2CCO3)n2cc(C#N)nc12 [US11485738, Example 87] | < 100
